The supplement of paper PMC5908809

Key:
Experiment in all cases: relative IC50 (inflection point of fitted viability curve, relative to fitted max inhibition); higher = less sensitive
Conditions in all cases: 72 h
IMC-1 (IL-2 20 ng/mL) = system: IMC-1 (IL-2 20 ng/mL)
Protocol: (§1)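 Drug sensitivity and resistance testing: 5 concentrations over a 10,000-fold range, 72 h at 37 °C, viability by CellTiter-Glo normalised to DMSO and benzethonium chloride controls. IC50 is the inflection point of a logistic fit (min fixed at 0, max fitted), so it is relative to the fitted maximal inhibition. Kept only where fitted max inhibition is at least 50%.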

KHYG-1 (IL-2 2.5 ng/mL) = system: KHYG-1 (IL-2 2.5 ng/mL)
Protocol: as §1

NKL (IL-2 2.5 ng/mL) = system: NKL (IL-2 2.5 ng/mL)
Protocol: as §1

SNK-6 (IL-2 2.5 ng/mL) = system: SNK-6 (IL-2 2.5 ng/mL)
Protocol: as §1

DERL-7 (IL-2 2.5 ng/mL) = system: DERL-7 (IL-2 2.5 ng/mL)
Protocol: as §1

KAI3 (IL-2 2.5 ng/mL) = system: KAI3 (IL-2 2.5 ng/mL)
Protocol: as §1

NK-92 (IL-2 2.5 ng/mL) = system: NK-92 (IL-2 2.5 ng/mL)
Protocol: as §1

NK-YS (IL-2 2.5 ng/mL) = system: NK-YS (IL-2 2.5 ng/mL)
Protocol: as §1

YT (IL-2 2.5 ng/mL) = system: YT (IL-2 2.5 ng/mL)
Protocol: as §1

[1] = system: normal primary NK cells, pool 1 (3 donors), resting (IL-2 0 ng/mL)
Protocol: as §1

[2] = system: normal primary NK cells, pool 2 (3 donors) (IL-2 2.5 ng/mL)
Protocol: as §1

[3] = system: normal primary NK cells, pool 3 (3 donors) (IL-2 2.5 ng/mL)
Protocol: as §1

Structure (SMILES) | relative IC50 (IMC-1 (IL-2 20 ng/mL)) [µM] | relative IC50 (KHYG-1 (IL-2 2.5 ng/mL)) [µM] | relative IC50 (NKL (IL-2 2.5 ng/mL)) [µM] | relative IC50 (SNK-6 (IL-2 2.5 ng/mL)) [µM] | relative IC50 (DERL-7 (IL-2 2.5 ng/mL)) [µM] | relative IC50 (KAI3 (IL-2 2.5 ng/mL)) [µM] | relative IC50 (NK-92 (IL-2 2.5 ng/mL)) [µM] | relative IC50 (NK-YS (IL-2 2.5 ng/mL)) [µM] | relative IC50 (YT (IL-2 2.5 ng/mL)) [µM] | relative IC50 [1] [µM] | relative IC50 [2] [µM] | relative IC50 [3] [µM]
CCc1cc(Nc2nccc(-c3c(-c4ccc(OC)c(C(=O)Nc5c(F)cccc5F)c4)nc4ccccn34)n2)c(OC)cc1N1CCC(N2CCN(S(C)(=O)=O)CC2)CC1 | > 10 | > 10 | > 10 | > 10 | – | – | – | – | – | – | – | –
CNc1nc(-c2ccc3c(N)n[nH]c3c2)cc(N2C[C@@H](C(=O)NC3CCCCC3)CC[C@H]2C)n1 | > 10 | – | – | > 10 | 0.248 | – | – | – | – | – | – | –
COc1cc2ncnc(Oc3cccc(NC(=O)Nc4cc(C(C)(C)C(F)(F)F)on4)c3)c2cc1OC | – | – | – | > 10 | – | – | – | – | – | – | – | –
CS(=O)(=O)N1CCc2c(-c3cnc(N)nc3)nc(N3CCOCC3)nc21 | – | – | 0.451 | – | 1 | 0.384 | 0.316 | 0.94 | 1.29 | – | – | –
Cc1c(NC(=O)OC[C@@H]2COCCN2)cn2ncnc(Nc3ccc4c(cnn4Cc4cccc(F)c4)c3)c12 | – | 2.23 | 3.11 | – | 2.73 | 3.18 | 2.4 | – | – | 3.97 | 3.09 | –
Cc1ccc(C(=O)N(CCCN)[C@@H](c2oc3cc(Cl)ccc3c(=O)c2Cc2ccccc2)C(C)C)cc1 | 0.00317 | 0.00304 | 0.0052 | 0.00413 | 0.0218 | 0.0109 | 0.0209 | 0.00375 | 0.0242 | – | – | –
O=C(NOCC1CC1)c1ccc(F)c(F)c1Nc1ccc(I)cc1Cl | 2.22 | 0.851 | 0.153 | 3.94 | 1.31 | 0.608 | 3.22 | 1.65 | 1.85 | – | – | –
O=C(NOC[C@H](O)CO)c1ccc(F)c(F)c1Nc1ccc(I)cc1F | – | 0.0316 | 0.0199 | – | 0.01 | – | > 1 | – | – | – | – | > 1
COc1ccc(S(=O)(=O)Nc2cccnc2Nc2ccc(O)cc2)cc1 [ABT-751] | 0.283 | 0.197 | 0.381 | 0.0761 | 0.294 | 0.243 | 0.122 | 0.135 | 0.207 | – | – | –
CON(C)C(=O)N1N=C(c2cc(F)ccc2F)S[C@@]1(CCCN)c1ccccc1 [ARRY-520] | – | 0.00325 | 0.00525 | 0.00257 | 0.00314 | – | 0.0102 | 0.00386 | 0.0229 | > 1 | – | –
O=C(Nc1c[nH]nc1-c1nc2ccc(CN3CCOCC3)cc2[nH]1)NC1CC1 [AT9283] | 0.078 | 0.0472 | 0.0854 | 0.0397 | 0.0411 | 0.0698 | 0.0658 | 0.0419 | 0.135 | > 1 | – | –
N[C@@H]1CCCN(c2c(/C=C3\SC(=O)NC3=O)cccc2-c2ccccc2)C1 [AZD1208] | > 10 | – | – | – | 0.304 | – | – | – | – | – | – | –
COc1ccc(-c2ccc3c(N4CCOC[C@@H]4C)nc(N4CCOC[C@@H]4C)nc3n2)cc1CO [AZD8055] | – | 0.135 | 0.00508 | 0.0163 | 0.0217 | 0.0103 | 0.121 | 0.0773 | 0.0556 | – | – | –
C[C@]12CC[C@H](O)CC1=CC[C@@H]1[C@@H]2CC[C@]2(C)C(c3cccnc3)=CC[C@@H]12 [Abiraterone] | – | – | – | > 5 | – | – | – | – | – | – | – | –
CCCCCOC(=O)Nc1nc(=O)n([C@@H]2O[C@H](C)[C@@H](O)[C@H]2O)cc1F [Capecitabine] | > 10 | > 10 | – | 1.63 | 2.52 | 1.08 | – | – | – | – | – | –
CCN(CC)CCCC(C)Nc1ccnc2cc(Cl)ccc12 (centres undefined) [Chloroquine] | 33.4 | – | – | – | – | – | – | – | – | – | 14.3 | 9.06
C[C@@H](Oc1cc(-c2cnn(C3CCNCC3)c2)cnc1N)c1c(Cl)ccc(F)c1Cl [Crizotinib] | – | – | – | > 1 | – | – | – | – | – | – | – | –
CN(C)/N=N/c1[nH]cnc1C(N)=O [Dacarbazine] | – | – | – | – | > 10 | – | > 10 | – | 2.97 | > 10 | > 10 | –
COc1cc2ncnc(Nc3ccc(F)c(Cl)c3)c2cc1NC(=O)/C=C/CN1CCCCC1 [Dacomitinib] | – | – | – | – | – | – | – | – | – | 0.404 | – | –
C#Cc1cccc(Nc2ncnc3cc(OCCOC)c(OCCOC)cc23)c1 [Erlotinib] | – | – | – | – | – | 1.3 | – | – | – | 3.36 | – | –
CON(C)C(=O)N1N=C(c2cc(F)ccc2F)S[C@@]1(CCCN)c1ccccc1 [Filanesib] | 0.00315 | – | – | – | – | – | – | – | – | – | – | –
COc1cc2c(Oc3ccc(NC(=O)C4(C(=O)Nc5ccc(F)cc5)CC4)cc3F)ccnc2cc1OCCCN1CCOCC1 [Foretinib] | – | – | – | – | 0.369 | – | – | 0.191 | – | – | – | –
Nc1ccn([C@@H]2O[C@H](CO)[C@@H](O)C2(F)F)c(=O)n1 [Gemcitabine] | 0.00308 | 0.00214 | 0.00073 | 0.00648 | 0.0109 | 0.00517 | 0.00277 | 0.00467 | 0.0153 | – | – | –
CC(C)C[C@H](NC(=O)[C@@H](COC(C)(C)C)NC(=O)[C@H](Cc1ccc(O)cc1)NC(=O)[C@H](CO)NC(=O)[C@H](Cc1c[nH]c2ccccc12)NC(=O)[C@H](Cc1cnc[nH]1)NC(=O)[C@@H]1CCC(=O)N1)C(=O)N[C@@H](CCCNC(=N)N)C(=O)N1CCC[C@H]1C(=O)NNC(N)=O [Goserelin] | – | – | – | > 10 | – | – | – | – | – | – | – | –
CC(C)n1nc(-c2ccc3oc(N)nc3c2)c2c(N)ncnc21 [INK128] | – | 0.124 | 0.00891 | – | 0.0151 | 0.0228 | 0.0217 | 0.051 | 0.0282 | – | – | –
Nc1cccc2c1CN(C1CCC(=O)NC1=O)C2=O (centres undefined) [Lenalidomide] | – | – | – | 3.46 | > 100 | 17.1 | – | – | – | 6.06 | – | –
COc1cc2nccc(Oc3ccc(NC(=O)NC4CC4)c(Cl)c3)c2cc1C(N)=O [Lenvatinib] | – | – | – | > 2.5 | – | – | – | – | – | – | > 2.5 | –
CN(C[C@@H]1COCCO1)S(=O)(=O)Nc1ccc2ccc3ncc(-c4cnn(C)c4)cc3c(=O)c2c1 [MK-2461] | – | – | – | – | 1.77 | – | – | – | – | – | – | > 10
Cc1cn(-c2cc(NC(=O)c3ccc(C)c(Nc4nccc(-c5cccnc5)n4)c3)cc(C(F)(F)F)c2)cn1 [Nilotinib] | – | – | 0.869 | – | – | – | – | – | – | – | – | > 10
